Data reported in publication PMC3265415, “Fatty acyl-CoA reductases of birds” (BMC Biochemistry, 2011).

Key:
Assay in all cases: radio-TLC assay of yeast membrane fraction (alcohols + aldehydes)
Assay type in all cases: biochemical
AdFAR1 = molecular target: T1, AdFAR1 (Anser anser, UniProt G9IBF1); details: pH 6.5, 37 C
T1 construct: gene FAR1; full-length cDNA from uropygial gland in pYES-DEST52 (primer keeps stop codon); S. cerevisiae BY4741 dga1 lro1 membranes
T1 sequence (G9IBF1 1-515): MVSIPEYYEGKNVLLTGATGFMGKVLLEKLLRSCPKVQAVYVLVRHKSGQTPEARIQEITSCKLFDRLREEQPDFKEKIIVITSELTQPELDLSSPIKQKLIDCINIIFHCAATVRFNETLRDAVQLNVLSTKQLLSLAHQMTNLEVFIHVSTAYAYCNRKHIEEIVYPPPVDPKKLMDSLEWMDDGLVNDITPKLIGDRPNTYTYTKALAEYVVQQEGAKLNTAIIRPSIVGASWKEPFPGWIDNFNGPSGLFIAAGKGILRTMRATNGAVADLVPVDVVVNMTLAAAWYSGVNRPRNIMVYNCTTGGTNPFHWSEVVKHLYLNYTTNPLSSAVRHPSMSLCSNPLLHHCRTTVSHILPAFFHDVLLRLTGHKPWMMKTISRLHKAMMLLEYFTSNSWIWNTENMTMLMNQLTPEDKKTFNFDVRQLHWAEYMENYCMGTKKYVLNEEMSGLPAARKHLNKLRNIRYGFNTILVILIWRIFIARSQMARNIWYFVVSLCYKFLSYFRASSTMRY

TaFAR2 = molecular target: T2, TaFAR2 (Tyto alba, UniProt G9IBF3); details: labelled 18:0-CoA as co-substrate; pH 5.5, 37 C
T2 construct: gene FAR2; full-length cDNA from uropygial gland in pYES-DEST52 (primer keeps stop codon); expressed in Saccharomyces cerevisiae BY4741 dga1 lro1; total membrane fraction
T2 sequence (G9IBF3 1-515): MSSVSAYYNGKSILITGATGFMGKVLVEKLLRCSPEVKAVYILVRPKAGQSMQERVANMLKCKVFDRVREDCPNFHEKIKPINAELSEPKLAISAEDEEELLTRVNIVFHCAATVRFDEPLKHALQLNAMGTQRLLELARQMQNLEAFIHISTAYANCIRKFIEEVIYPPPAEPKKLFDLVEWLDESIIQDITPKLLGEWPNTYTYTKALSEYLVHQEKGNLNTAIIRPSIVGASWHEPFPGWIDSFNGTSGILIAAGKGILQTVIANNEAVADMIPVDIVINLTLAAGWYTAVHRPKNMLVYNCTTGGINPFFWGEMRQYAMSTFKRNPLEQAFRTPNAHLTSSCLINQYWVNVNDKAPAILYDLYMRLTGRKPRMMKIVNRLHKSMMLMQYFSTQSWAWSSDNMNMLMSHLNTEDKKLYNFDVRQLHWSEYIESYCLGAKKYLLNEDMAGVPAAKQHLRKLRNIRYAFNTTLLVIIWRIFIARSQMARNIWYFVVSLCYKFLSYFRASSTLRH

TaFAR1 = molecular target: T3, TaFAR1 (Tyto alba, UniProt G9IBF2); details: labelled 16:0-CoA as co-substrate, NADPH varied; pH 6.5, 37 C
T3 construct: gene FAR1; full-length cDNA from uropygial gland in pYES-DEST52 (primer keeps stop codon); expressed in Saccharomyces cerevisiae BY4741 dga1 lro1; total membrane fraction
T3 sequence (G9IBF2 1-515): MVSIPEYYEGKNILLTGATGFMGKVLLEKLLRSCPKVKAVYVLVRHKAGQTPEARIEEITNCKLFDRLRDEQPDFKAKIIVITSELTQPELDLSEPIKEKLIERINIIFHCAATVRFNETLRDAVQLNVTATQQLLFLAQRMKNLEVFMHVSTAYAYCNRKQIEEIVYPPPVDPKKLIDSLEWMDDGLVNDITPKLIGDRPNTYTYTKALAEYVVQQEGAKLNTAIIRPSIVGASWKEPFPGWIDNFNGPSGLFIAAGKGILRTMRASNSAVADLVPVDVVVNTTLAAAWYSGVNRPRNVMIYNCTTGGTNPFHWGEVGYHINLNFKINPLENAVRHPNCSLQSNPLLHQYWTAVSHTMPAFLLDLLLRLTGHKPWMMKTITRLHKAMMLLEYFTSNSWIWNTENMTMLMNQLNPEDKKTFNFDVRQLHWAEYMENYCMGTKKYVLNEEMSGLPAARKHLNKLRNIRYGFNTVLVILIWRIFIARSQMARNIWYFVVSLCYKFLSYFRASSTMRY

GgFAR2 = molecular target: T4, GgFAR2 (Gallus gallus, UniProt A0A3Q2TWV7, V159M/K457R); details: labelled acyl-CoA as co-substrate; pH 5.5, 37 C
T4 construct: gene FAR2; uropygial gland cDNA in pYES-DEST52, S. cerevisiae BY4741 dga1 lro1 membranes
T4 sequence (A0A3Q2TWV7 1-515 V159M/K457R): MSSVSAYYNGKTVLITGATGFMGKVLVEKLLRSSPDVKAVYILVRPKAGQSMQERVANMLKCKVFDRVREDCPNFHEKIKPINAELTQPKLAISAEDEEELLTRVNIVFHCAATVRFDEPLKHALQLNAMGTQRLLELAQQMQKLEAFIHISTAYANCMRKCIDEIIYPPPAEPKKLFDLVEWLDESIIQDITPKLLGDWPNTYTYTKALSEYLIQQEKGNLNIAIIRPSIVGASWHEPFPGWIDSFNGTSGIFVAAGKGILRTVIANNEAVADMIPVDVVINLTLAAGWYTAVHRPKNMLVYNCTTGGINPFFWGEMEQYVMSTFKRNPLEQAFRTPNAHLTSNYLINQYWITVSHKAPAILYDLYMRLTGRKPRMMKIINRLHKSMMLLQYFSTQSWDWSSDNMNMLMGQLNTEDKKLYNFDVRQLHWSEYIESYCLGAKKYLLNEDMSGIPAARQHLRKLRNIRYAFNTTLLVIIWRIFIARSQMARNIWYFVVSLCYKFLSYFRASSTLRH

GgFAR1 = molecular target: T5, GgFAR1 (Gallus gallus, UniProt Q5ZM72); details: labelled acyl-CoA as co-substrate; pH 6.5, 37 C
T5 construct: gene FAR1; uropygial gland cDNA in pYES-DEST52, S. cerevisiae BY4741 dga1 lro1 membranes
T5 sequence (Q5ZM72 1-515): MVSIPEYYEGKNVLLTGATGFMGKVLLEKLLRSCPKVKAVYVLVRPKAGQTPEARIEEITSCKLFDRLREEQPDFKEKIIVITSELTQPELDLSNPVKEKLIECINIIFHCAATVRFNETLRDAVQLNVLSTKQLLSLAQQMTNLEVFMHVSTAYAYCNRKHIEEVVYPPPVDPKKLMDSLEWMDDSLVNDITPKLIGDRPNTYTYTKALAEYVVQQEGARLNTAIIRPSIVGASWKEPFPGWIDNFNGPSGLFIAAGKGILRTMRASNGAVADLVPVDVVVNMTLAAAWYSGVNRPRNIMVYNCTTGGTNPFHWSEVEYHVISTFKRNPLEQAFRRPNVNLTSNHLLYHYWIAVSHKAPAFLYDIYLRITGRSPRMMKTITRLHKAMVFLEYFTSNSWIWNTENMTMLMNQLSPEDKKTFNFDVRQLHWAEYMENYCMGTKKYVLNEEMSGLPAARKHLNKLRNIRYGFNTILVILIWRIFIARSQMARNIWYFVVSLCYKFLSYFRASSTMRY

CCCCCCCCCCCCCCCC(=O)SCCNC(=O)CCNC(=O)[C@H](O)C(C)(C)COP(=O)(O)OP(=O)(O)OC[C@H]1O[C@@H](n2cnc3c(N)ncnc32)[C@H](O)[C@@H]1OP(=O)(O)O [16:0-CoA]
radio-TLC assay of yeast membrane fraction (alcohols + aldehydes) (AdFAR1; 20 uM acyl-CoA, 5 mM NADPH, 1 mM MgCl2, 16 uM BSA, labelled compound): only AdFAR1 of goose was almost equally active with all substrates

NC(=O)C1=CN([C@@H]2O[C@H](COP(=O)(O)OP(=O)(O)OC[C@H]3O[C@@H](n4cnc5c(N)ncnc54)[C@H](OP(=O)(O)O)[C@@H]3O)[C@@H](O)[C@H]2O)C=CC1 [NADPH]
radio-TLC assay of yeast membrane fraction (alcohols + aldehydes) (TaFAR2): All FAR enzymes required NADPH as electron donor
radio-TLC assay of yeast membrane fraction (alcohols + aldehydes) (TaFAR1): All FAR enzymes required NADPH as electron donor
radio-TLC assay of yeast membrane fraction (alcohols + aldehydes) (AdFAR1; labelled acyl-CoA as co-substrate): All FAR enzymes required NADPH as electron donor
radio-TLC assay of yeast membrane fraction (alcohols + aldehydes) (GgFAR2): All FAR enzymes required NADPH as electron donor
radio-TLC assay of yeast membrane fraction (alcohols + aldehydes) (GgFAR1): All FAR enzymes required NADPH as electron donor
